Patent EP1090646A2, “Labelled d-mannoheptulose derivatives and their use for imaging of the endocrine pancreas” (UNIVERSITE LIBRE DE BRUXELLES, priority 1999, dated 2001)
Like-named read-outs stand apart in the source and are kept apart here.

Columns and labels:
[1] = tested on: isolated pancreatic islets
Protocol: (§1) Unless otherwise mentioned, the pancreatic pieces or isolated islets were submitted after incubation, to four successive washes conducted at 4°C with a medium containing 20.0 µM cytochalasin B (Sigma, St. Louis, MO, USA).
In a further series of experiments, groups of 20 islets each were submitted, after incubation, to 6 successive washes at 4°C in the presence of cytochalasin B (20.0 µM).
In the last set of experiments in this series, groups of 20 islets each were incubated for 60 min at 37°C in the presence of D-[^3H]mannoheptulose (0.1 mM), washed thrice at 4°C, further incubated for 60 min at 37°C in the absence of the heptose but presence of cytochalasin B (20.0 µM), again submitted to 4 successive washes, and eventually examined for their radioactive content.

[2] = one day after intraperitoneal injection
Protocol: Female Wistar rats (220-230 g body wt.) were injected intravenously with streptozotocin (0.25 µmol/g body wt.) on day zero. Eight to nine days later, they were transplanted with 1,500-6,000 islets prepared by the collagenase procedure (2) from rats of the same sex and strain (Iffa Credo, L'Arbresle, France). The islets were placed (1,500 islets per module) in 1-4 implantation modules (Statice Santé, Besançon, France), which were inserted, under pentobarbital anaesthesia (0.5-0.6 µmol/g body wt.; Nembutal, Sanofi, Brussels, Belgium), into the peritoneal cavity. The modules were equipped with a 20 µm thick polycarbonate membrane (Whatman, Maidstone, Kent, UK) with 6 x 10^8 pores (diameter : 50 nm) per cm^2. The glycemia of the rats was monitored in blood samples collected from the severed end of the tail.
D-[^3H]mannoheptulose (100 µCi in 0.3 ml saline containing 0.1 mM unlabelled D-mannoheptulose) was injected intraperitoneally and the animals killed by decapitation 24 hours later after a last blood sampling from the severed end of the tail had been obtained for measurement of glycemia. The blood collected after decapitation in heparinized vials was used for measurements of radioactivity in aliquots of blood, plasma and erythrocytes, as well as for determination of plasma D-glucose and insulin concentration. Samples of the liver, gastrocnemius muscle and kidney, as well as the whole pancreas, were homogenised in 1.5 ml H2O, aliquot parts of the homogenates being used for DNA and radioactive measurements. The fluid present in the implantation device was aspirated and also examined for its radioactive content. Thereafter, the implantation device was repeatedly frozen and thawn in 0.4 ml H2O, aliquot parts of this extract being then again used for both DNA and radioactive determinations.
The methods used to measure DNA content (3), glycemia (Glycotronic C; Macherey-Nagel, Düren, Germany), plasma D-glucose (4) and insulin (5) concentrations were previously described in the cited references.

pieces of pancreas = experiment: Apparent distribution space in pieces of pancreas from control and STZ rats; details: for apparent distribution space in the presence of D-glucose relative to its absence: D-glucose 8.3 mM; for final distribution space relative to the initial incubation medium radioactive content: after the two successive incubations
Protocol: as §1
In the next series of experiments, the possible uptake of D-[^3H]mannoheptulose was compared to that of its hexaacetate ester in pieces of pancreas from normal rats (Figure 2).
In the last set of experiments in this series, pieces of pancreas from either normal or STZ rats were first incubated for 60 min at 37°C in the presence of 8.3 mM D-glucose, then submitted to 3 washes at 4°C in the presence of the hexose (8.3 mM) and cytochalasin B (20.0 µM), further incubated for 60 min at 37°C, still in the presence of D-glucose and the mould metabolite, and eventually submitted to 4 washes at 4°C prior to measurement of their radioactive content.

[3] = Protocol: Two preparations of D-[^3H]mannoheptulose were used. The first preparation, used in a few in vitro experiments and in one set of in vivo experiments (animals injected 30 to 60 min before sacrifice), was a product from Nycomed Amersham (Little Chalfont, Buckinghamshire, UK). […] The second preparation used in all other experiments was a product from NEN Life Science Products (Zaventem, Belgium). […] In all experiments conducted in vivo, the animals were injected intravenously with D-[^3H]mannoheptulose (10-40 µCi, and 200 µCi in the case of the rats killed 48 hours after this injection) placed in 300 µl of saline. Except in the animals killed 30-60 min after D-[^3H]mannoheptulose injection, the inoculate also contained 0.1 mM unlabelled D-mannoheptulose.
In the in vivo experiments, the STZ rats were either not treated with insulin (animals killed 30-60 min after D-[^3H]mannoheptulose injection) or received twice daily 6 U of insulin (Insulatard, Novo Nordisk, Bagsvaerd, Denmark) subcutaneously, the last of these injections being given at about 5 p.m. on the day before either the injection of D-[^3H]mannoheptulose (animals killed 15 min after D-[^3H]mannoheptulose administration) or the sacrifice of the rats (rats examined 48 hours after D-[^3H]mannoheptulose injection). The animals killed 15 min after the injection of D-[^3H]mannoheptulose received a total of either 5 insulin injections, the first being made at about 5 p.m. on the day after streptozotocin administration, or 6 insulin injections given between the third and fifth day after streptozotocin administration. In the rats killed 48 hours after the injection of D-[^3H]mannoheptulose, the insulin treatment was initiated at 9 a.m. 3 days after streptozotocin administration and continued for a total of 5 days.
At stated times after D-[^3H]mannoheptulose intravenous injection, the rats were killed by decapitation, blood was collected in heparinized vials and the plasma separated for measurement of its radioactive content, as well as D-glucose^13 and insulin^14 concentrations. Samples of gastrocnemius muscle, liver, kidney and pancreas were weighed, homogenised in 1.5-3.0 ml of water, and aliquot parts of these homogenates examined for their radioactive content by liquid scintillation.
All radioactive data were calculated as dpm/µl of plasma or dpm/mg wet wt. (muscle, liver, kidney, pancreas). In these four tissues, the results were eventually expressed as µl/mg wet wt., by dividing the radioactive content (dpm/mg) by the paired plasma value (dpm/µl).

Remark: listed apart in the source
[4] = tested on: rat pancreatic islets or dispersed islet cells; details: 60 min incubation at 37°C
[5] = tested on: tumoral islet cells of the RINm5F line
[6] = tested on: tumoral islet cells of the INS-1 line
[7] = up to the 60th min after injection

[3H][C@@](O)(CO)[C@@H](O)[C@H](O)[C@@H](O)C=O [D-[5-^3H]glucose, reference compound]
apparent distribution space after incubation at 4°C relative to 37°C ([1]; 8.3 mM, 30 min, 6 washes): 55.5 ± 8.3%

[3H][C@@](O)([C@H](O)CO)[C@H](O)[C@H](O)C(=O)CO [D-[^3H]mannoheptulose]
calculated radioactive content of the transplanted islets (dpm/mg wet wt.) relative to paired plasma radioactive content (dpm/µl) [2]: 6.49 ± 1.27
paired islet/pancreas ratio [2]: 11.59 ± 0.03
radioactive content calculated for the transplanted islets [2]: 332.7 ± 30.7 dpm/mg wet weight
radioactive content of the kidney [2]: 51.0 ± 0.9 dpm/mg wet weight
radioactive content of the liver [2]: 64.5 ± 6.4 dpm/mg wet weight
radioactive content of the muscle [2]: 28.9 ± 7.8 dpm/mg wet weight
radioactive content of the pancreas [2]: 28.7 ± 2.6 dpm/mg wet weight
volume of distribution, as judged from the plasma radioactive content ([2]; STZ diabetic rats with transplanted islets): 10.0 ± 2.2 ml/g body weight
apparent distribution space ([1]; 0.1 mM, 10-120 min incubation at 37°C, only 3 washes at 4°C with cytochalasin B 20.0 µM): ≥ 5.5 nl/islet
apparent distribution space in the presence of D-glucose relative to reference value (no D-glucose) ([1]; 0.1 mM, 30 or 120 min at 37°C, D-glucose 8.3 mM, 3 washes): 161.4 ± 23.7%
increase of apparent distribution space between the 15th and 120th min of incubation ([1]; 0.1 mM, 37°C, 8.3 mM D-glucose, 6 washes): 73.5 ± 30.3%
apparent distribution space relative to that of D-[5-3H]glucose (8.3 mM) ([1]; 0.1 mM, 30 min at 37°C, absence of D-glucose, 6 washes): 77.3 ± 9.4%
final radioactive content of islets first incubated with 8.3 mM D-glucose relative to absence of the hexose ([1]; 0.1 mM, 60 min 37°C, washes, further 60 min with cytochalasin B 20.0 µM): 168.5 ± 19.1%
final radioactive content with cytochalasin B in the first incubation medium containing 8.3 mM D-glucose, relative to reference value ([1]; 0.1 mM, cytochalasin B 20.0 µM, 60 min 37°C then second 60 min incubation): 103.7 ± 14.7%
apparent distribution space in STZ rats relative to control value (pieces of pancreas; 0.1 mM, 10 to 60 min at 37°C, 8.3 mM D-glucose, overall mean): 89.2 ± 3.6%
apparent distribution space in the presence of cytochalasin B relative to reference value (no cytochalasin B) (pieces of pancreas; 0.1 mM, 60 min, 8.3 mM D-glucose, cytochalasin B 20.0 µM, pooled control and STZ rats): 101.1 ± 4.1%
apparent distribution space after two successive incubations relative to that after first incubation and immediate washes (pieces of pancreas; 0.1 mM, STZ rats): 9.4 ± 0.4%
apparent distribution space after two successive incubations relative to that after first incubation and immediate washes (pieces of pancreas; 0.1 mM, control rats): 14.4 ± 0.4%
ratio between the mean values of apparent distribution space after 60/10 min incubation (pieces of pancreas; 0.1 mM, normal rats, 37°C, 8.3 mM D-glucose): 1.36 ± 0.16
final distribution space when the first incubation was conducted at 4°C relative to 37°C (pieces of pancreas; STZ rats): 38.0 ± 3.9%
apparent distribution space in the presence of D-glucose relative to its absence (pieces of pancreas; STZ rats, 0.1 mM, 60 min): 83.7 ± 4.5%
final distribution space relative to the initial incubation medium radioactive content (pieces of pancreas; STZ rats): 1.34 ± 0.11%
final distribution space relative to the initial incubation medium radioactive content (pieces of pancreas; control animals): 1.78 ± 0.10%
final distribution space when the first incubation was conducted at 4°C relative to 37°C (pieces of pancreas; control rats): 36.9 ± 4.2%
apparent distribution space in the presence of D-glucose relative to its absence (pieces of pancreas; control rats, 0.1 mM, 60 min): 106.7 ± 6.5%
radioactive content of the pancreatic gland relative to paired plasma value, STZ rats as % of mean control value ([3]; 15-2880 min after intravenous injection, all available data pooled): 81.6 ± 4.2%
liver/plasma radioactive ratio, STZ rats as % of normal rats ([3]; STZ animals not treated with insulin, tracer amount only, no unlabelled heptose): 56.1 ± 3.3%
paired ratio liver/plasma radioactivity, STZ rats as % of control rats ([3]; insulin-treated STZ rats (n = 11)): 109.5 ± 8.3%
kidney radioactive content relative to paired plasma value, STZ rats as % of normal rats ([3]; rat, in vivo): 68.1 ± 6.5%
paired ratio muscle/plasma radioactivity, STZ rats as % of control rats ([3]; rat, in vivo): 87.7 ± 6.2%
radioactive content of the pancreatic gland relative to paired plasma value, STZ rats as % of mean control value ([3]; results at 15 min not taken into account): 77.9 ± 5.6%
muscle/liver ratio [3, 7]: ≤ 17.00 ± 1.17%
paired pancreas/muscle ratio [3, 7]: 125.71 ± 7.83%
pancreas/liver ratio [3, 7]: 21.26 ± 1.07%
radioactive content of the transplanted islets relative to that found in the pancreas (60 min after the intravenous injection): about 10 times
radioactive content in the liver and transplanted islets relative to the pancreatic gland (one hour after intravenous injection): 5-8 times
apparent intracellular distribution space relative to the intracellular 3HOH space [4]: ~50%
apparent distribution space relative to the intracellular 3HOH space [5]: about 3%
apparent distribution space relative to the intracellular 3HOH space [6]: ~9%

[3H]O[3H] [^3HOH, reference compound]
apparent distribution space after two successive incubations relative to that after first incubation and immediate washes (pieces of pancreas; normal or STZ rats pooled (n = 16), second 60 min incubation with D-glucose and cytochalasin B): no more than 1.8 ± 0.4%
